Experimental data as given in ChEMBL document CHEMBL5465560, “Selectivity Literature for EUbOPEN Chemogenomic Library” (2024).

Assays:
[1] = target: Casein kinase II subunit alpha' (Homo sapiens) (UniProt P19784); experiment: Selectivity interaction (KinomeScan (DiscoverX)) EUB0001079a CSNK2A2; details: at 1 µM
[2] = target: Proto-oncogene tyrosine-protein kinase Src (Homo sapiens, UniProt P12931); experiment: Selectivity interaction (KinomeScan (DiscoverX)) EUB0000666a SRC; details: at 10 µM
[3] = target: Tyrosine-protein kinase Lyn (Homo sapiens, UniProt P07948); experiment: Selectivity interaction (KinaseProfiler screening (Millipore)) EUB0000601a LYN; details: at 3 µM
[4] = target: Protein kinase C delta type (Homo sapiens) (UniProt Q05655); details: at 10 µM
[5] = target: Protein-tyrosine kinase 6 (Homo sapiens, UniProt Q13882); experiment: Selectivity interaction (Kinase panel (Z-LYTE Assay)) EUB0001632a PTK6; details: at 10 µM
[6] = target: Serine/threonine-protein kinase Nek7 (Homo sapiens) (UniProt Q8TDX7); experiment: Selectivity interaction (ActivX KiNativ screen (kinase selectivity in THP-1 cell lysates)) EUB0000639a NEK7; type: subcellular; details: lysate
[7] = target: Death-associated protein kinase 3 (Homo sapiens) (UniProt O43293); experiment: Selectivity interaction (SelectScreen profiling (Invitrogen)) EUB0000607a DAPK3; details: at 2 µM
[8] = target: T1, Serine/threonine-protein kinase Nek9 (Homo sapiens) (UniProt Q8TD19); experiment: Selectivity interaction (KinomeScan (DiscoverX)) EUB0000607a NEK9; details: at 10 µM
T1 sequence (whole entry): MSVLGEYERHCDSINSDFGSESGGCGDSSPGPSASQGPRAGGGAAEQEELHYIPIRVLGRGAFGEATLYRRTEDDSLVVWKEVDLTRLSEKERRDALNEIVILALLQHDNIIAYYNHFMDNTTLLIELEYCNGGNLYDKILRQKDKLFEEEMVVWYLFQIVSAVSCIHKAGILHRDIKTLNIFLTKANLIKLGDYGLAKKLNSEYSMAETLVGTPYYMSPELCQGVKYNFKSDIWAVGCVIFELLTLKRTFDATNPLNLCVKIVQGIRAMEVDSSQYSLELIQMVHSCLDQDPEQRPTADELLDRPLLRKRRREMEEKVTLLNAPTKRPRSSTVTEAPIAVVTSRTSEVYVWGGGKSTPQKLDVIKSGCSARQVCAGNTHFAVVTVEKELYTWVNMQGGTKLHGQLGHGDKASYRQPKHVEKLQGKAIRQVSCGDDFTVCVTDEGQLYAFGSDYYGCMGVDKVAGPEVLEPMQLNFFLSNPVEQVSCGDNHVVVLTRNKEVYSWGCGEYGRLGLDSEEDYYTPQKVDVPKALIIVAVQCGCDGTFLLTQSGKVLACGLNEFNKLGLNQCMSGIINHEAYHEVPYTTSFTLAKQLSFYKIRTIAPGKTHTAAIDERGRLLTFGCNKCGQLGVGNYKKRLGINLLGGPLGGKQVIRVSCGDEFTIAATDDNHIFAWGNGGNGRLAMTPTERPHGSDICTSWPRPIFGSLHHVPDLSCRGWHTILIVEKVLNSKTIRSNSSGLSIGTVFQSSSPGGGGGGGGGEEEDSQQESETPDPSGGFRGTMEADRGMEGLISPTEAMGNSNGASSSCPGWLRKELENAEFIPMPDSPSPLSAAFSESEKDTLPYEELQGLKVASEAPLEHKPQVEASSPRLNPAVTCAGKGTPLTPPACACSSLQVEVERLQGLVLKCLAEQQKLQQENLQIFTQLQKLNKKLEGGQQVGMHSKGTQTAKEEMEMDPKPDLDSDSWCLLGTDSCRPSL

[9] = target: T2, Serine/threonine-protein kinase TBK1 (Homo sapiens) (UniProt Q9UHD2); experiment: Selectivity interaction (KinomeScan (DiscoverX)) EUB0000045b TBK1
T2 sequence (whole entry): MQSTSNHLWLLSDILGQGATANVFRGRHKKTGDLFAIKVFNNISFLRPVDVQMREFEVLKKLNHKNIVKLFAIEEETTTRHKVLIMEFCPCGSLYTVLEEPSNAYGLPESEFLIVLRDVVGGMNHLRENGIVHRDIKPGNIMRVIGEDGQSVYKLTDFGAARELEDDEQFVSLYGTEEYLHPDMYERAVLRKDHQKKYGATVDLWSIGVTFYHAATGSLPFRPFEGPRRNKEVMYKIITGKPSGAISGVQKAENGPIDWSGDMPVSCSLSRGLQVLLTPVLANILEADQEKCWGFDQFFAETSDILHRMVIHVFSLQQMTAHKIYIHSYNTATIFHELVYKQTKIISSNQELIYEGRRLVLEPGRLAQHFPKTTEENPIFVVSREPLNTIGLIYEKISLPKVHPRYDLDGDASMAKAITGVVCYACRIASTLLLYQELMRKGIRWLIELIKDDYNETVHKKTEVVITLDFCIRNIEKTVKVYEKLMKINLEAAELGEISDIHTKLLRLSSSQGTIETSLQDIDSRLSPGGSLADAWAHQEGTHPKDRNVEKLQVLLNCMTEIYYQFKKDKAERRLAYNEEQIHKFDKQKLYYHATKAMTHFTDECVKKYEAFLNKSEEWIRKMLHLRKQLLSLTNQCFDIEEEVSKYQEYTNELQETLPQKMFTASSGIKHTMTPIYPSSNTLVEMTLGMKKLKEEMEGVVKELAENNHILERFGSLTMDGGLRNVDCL

[10] = target: Receptor tyrosine-protein kinase erbB-3 (Homo sapiens) (UniProt P21860); experiment: Selectivity interaction (KinomeScan (DiscoverX)) EUB0000618a ERBB3; details: at 10 µM
[11] = target: Protein arginine N-methyltransferase 5 (Homo sapiens, UniProt O14744); experiment: Selectivity interaction (Scintillation proximity assays) EUB0000230b PRMT5

Chain of Serine/threonine-protein kinase Nek7 (Homo sapiens) (Q8TDX7 whole entry, looked up): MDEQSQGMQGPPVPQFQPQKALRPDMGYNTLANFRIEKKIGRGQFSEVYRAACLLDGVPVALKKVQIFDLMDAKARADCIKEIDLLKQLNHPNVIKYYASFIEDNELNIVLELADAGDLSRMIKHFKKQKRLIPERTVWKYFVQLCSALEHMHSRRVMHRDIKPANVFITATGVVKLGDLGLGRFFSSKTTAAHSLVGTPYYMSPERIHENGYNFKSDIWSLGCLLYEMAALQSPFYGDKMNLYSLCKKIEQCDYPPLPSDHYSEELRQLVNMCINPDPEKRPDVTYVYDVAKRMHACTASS
Chain of Protein kinase C delta type (Homo sapiens) (Q05655 whole entry, looked up): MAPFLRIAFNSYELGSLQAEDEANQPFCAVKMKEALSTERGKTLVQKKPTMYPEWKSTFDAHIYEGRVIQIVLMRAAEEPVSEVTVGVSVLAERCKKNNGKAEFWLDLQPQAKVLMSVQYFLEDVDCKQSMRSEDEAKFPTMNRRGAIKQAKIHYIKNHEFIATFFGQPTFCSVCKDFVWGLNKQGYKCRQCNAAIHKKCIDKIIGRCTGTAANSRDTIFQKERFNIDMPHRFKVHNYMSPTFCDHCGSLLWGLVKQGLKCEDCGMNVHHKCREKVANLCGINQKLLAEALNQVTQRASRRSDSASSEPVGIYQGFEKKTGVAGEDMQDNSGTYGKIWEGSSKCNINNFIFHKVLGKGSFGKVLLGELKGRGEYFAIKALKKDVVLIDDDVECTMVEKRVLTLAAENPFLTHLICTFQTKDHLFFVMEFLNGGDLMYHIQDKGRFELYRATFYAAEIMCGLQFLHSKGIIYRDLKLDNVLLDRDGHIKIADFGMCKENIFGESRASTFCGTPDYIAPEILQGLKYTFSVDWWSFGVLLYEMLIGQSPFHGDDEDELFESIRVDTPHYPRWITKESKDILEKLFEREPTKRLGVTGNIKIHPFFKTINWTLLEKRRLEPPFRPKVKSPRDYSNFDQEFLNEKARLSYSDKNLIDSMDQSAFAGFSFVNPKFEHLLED
Chain of Tyrosine-protein kinase Lyn (P07948 2-512 limits assumed): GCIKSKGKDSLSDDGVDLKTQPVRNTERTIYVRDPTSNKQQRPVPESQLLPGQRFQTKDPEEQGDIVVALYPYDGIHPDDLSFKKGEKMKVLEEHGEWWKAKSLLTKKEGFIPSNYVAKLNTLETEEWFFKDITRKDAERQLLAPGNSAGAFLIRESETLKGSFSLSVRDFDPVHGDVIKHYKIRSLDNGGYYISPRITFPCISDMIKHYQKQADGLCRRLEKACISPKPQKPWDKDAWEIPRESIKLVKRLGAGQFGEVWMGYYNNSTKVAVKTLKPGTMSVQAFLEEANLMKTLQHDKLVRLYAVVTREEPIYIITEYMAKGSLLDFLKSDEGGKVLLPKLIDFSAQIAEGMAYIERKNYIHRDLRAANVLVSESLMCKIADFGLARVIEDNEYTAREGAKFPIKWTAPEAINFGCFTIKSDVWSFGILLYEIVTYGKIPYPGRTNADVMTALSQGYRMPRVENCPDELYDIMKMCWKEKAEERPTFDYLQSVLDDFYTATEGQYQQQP
Chain of Protein-tyrosine kinase 6 (Q13882 whole entry, looked up): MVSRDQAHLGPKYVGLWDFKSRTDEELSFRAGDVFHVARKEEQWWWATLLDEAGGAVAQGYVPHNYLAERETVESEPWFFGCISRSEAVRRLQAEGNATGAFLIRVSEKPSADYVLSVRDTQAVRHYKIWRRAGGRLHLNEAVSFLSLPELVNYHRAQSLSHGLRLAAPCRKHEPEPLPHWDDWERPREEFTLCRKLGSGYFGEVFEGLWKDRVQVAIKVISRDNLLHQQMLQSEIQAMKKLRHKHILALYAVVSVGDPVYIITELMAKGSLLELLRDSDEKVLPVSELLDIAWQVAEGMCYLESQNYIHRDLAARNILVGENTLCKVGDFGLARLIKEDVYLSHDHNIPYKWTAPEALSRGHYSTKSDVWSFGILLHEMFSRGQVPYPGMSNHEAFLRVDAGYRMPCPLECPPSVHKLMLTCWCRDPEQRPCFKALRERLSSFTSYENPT
Chain of Receptor tyrosine-protein kinase erbB-3 (Homo sapiens) (P21860 whole entry): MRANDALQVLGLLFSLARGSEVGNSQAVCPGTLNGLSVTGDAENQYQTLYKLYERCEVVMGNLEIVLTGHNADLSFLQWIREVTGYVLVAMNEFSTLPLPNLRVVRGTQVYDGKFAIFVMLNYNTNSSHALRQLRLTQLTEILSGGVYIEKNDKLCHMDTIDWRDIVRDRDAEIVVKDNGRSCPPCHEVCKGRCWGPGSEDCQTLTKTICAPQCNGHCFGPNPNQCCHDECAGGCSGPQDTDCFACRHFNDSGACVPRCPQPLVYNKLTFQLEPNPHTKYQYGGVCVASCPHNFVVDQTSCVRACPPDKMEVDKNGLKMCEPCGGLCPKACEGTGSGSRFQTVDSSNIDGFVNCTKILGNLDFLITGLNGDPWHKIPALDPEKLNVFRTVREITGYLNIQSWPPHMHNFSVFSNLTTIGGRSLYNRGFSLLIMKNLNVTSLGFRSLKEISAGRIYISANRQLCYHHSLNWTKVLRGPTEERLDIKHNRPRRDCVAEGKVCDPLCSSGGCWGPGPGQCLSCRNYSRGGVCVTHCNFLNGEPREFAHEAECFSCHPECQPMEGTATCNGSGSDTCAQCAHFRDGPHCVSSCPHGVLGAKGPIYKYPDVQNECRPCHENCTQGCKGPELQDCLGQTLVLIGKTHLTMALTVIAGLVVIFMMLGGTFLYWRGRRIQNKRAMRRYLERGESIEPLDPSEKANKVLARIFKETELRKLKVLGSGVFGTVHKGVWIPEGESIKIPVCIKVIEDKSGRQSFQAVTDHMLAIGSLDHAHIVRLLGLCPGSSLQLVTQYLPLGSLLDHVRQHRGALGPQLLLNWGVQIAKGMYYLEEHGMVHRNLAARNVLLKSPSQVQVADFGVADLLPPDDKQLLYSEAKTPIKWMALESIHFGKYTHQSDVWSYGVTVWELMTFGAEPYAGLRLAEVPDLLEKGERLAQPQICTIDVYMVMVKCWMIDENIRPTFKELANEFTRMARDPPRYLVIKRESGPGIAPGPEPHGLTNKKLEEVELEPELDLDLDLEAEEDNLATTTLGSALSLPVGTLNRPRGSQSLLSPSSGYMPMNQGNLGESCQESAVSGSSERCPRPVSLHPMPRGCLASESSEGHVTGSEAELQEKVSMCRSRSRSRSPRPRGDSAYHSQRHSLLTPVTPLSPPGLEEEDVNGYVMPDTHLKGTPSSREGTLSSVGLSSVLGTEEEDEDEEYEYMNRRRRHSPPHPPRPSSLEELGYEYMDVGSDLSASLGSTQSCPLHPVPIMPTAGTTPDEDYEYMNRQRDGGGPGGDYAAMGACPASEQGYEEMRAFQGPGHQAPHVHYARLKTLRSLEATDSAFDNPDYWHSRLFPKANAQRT
Chain of Death-associated protein kinase 3 (Homo sapiens) (O43293 whole entry, looked up): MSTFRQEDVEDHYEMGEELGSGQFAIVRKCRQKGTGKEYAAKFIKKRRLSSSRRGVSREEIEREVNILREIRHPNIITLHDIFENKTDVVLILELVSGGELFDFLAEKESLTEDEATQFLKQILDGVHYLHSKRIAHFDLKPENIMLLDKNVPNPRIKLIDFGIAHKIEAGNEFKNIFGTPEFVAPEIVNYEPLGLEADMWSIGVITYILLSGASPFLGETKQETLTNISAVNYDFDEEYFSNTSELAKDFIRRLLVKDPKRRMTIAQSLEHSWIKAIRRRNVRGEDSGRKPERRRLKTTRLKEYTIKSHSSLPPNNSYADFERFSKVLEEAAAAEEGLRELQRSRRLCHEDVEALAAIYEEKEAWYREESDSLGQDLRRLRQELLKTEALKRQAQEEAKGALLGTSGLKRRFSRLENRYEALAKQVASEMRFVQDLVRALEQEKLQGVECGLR
Chain of Casein kinase II subunit alpha' (Homo sapiens) (P19784 whole entry, looked up): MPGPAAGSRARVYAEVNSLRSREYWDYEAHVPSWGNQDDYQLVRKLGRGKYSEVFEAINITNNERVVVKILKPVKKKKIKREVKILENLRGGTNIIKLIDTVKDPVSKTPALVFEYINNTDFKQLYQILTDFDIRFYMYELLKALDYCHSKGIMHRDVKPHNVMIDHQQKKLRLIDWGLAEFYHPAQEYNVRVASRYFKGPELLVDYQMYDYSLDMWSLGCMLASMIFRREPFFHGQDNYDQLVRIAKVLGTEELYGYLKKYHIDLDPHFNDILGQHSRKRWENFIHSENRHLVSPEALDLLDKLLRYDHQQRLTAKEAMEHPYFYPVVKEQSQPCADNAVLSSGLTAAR
Chain of Proto-oncogene tyrosine-protein kinase Src (P12931 2-536 limits assumed): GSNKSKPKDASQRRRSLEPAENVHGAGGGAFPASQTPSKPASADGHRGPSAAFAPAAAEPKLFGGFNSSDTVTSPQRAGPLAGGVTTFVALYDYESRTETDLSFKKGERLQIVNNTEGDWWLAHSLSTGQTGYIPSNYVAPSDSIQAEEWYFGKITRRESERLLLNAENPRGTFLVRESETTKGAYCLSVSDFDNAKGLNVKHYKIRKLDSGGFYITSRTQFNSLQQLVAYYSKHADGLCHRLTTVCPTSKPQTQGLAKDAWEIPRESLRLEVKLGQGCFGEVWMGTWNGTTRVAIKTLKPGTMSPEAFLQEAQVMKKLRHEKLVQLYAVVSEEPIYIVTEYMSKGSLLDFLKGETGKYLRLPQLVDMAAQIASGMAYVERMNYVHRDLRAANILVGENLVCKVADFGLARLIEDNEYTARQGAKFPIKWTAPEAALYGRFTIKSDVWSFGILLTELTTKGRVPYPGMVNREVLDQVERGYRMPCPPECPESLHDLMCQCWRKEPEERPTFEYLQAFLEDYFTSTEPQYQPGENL

## Nc1cnc(N2CCc3cc(S(=O)(=O)Nc4c(F)cc(Cl)cc4F)cc(N4CCCC4=O)c32)nc1 [TP-020n]
[1]
  % of control: 98%

## O=C(NOC[C@H](O)CO)c1ccc(F)c(F)c1Nc1ccc(I)cc1F
[2]
  % of control: 69%

## CCc1cc(Nc2nccc(-c3c(-c4ccc(OC)c(C(=O)Nc5c(F)cccc5F)c4)nc4ccccn34)n2)c(OC)cc1N1CCC(N2CCN(S(C)(=O)=O)CC2)CC1
[3]
  % of inhibition: 37%

## Cc1cc([C@@H](C)Nc2ccccc2C(=O)O)c2nc(N3CCOCC3)cc(=O)n2c1 [AZD-6482]
[4]
  % of control: 82%

## Cn1cc(-n2cnc3c(NCc4nc5cc(Cl)c(Cl)cc5[nH]4)nc(N4CCOCC4)nc32)cn1
[5]
  % of control: 9.47%

## CC[C@@H]1[C@H](F)C(=O)N[C@@H]1COc1nccc2cc(C(N)=O)c(OC)cc12 [ZIMLOVISERTIB]
[6]; at 0.01 µM
  % of inhibition: -4%
[6]; at 0.04 µM
  % of inhibition: -1.1%
[6]; at 0.2 µM
  % of inhibition: -1.6%
[6]; at 1 µM
  % of inhibition: 10.8%
[6]; at 5 µM
  % of inhibition: -20%

## CNC(=O)Nc1ccc(-c2nc(N3CC4CCC(C3)O4)c3cnn(C4CCC5(CC4)OCCO5)c3n2)cc1
[7]
  % of inhibition: 2%
[8]
  % of control: 100%

## C=CC(=O)Nc1cc(-n2c(=O)ccc3cnc4ccc(-c5ccc(NS(C)(=O)=O)cc5)cc4c32)ccc1C
[9]; at 1 µM
  % of control: 100%
[9]; at 10 µM
  % of control: 77%

## O[C@H]1CC[C@H](Nc2ncc3nc(Nc4c(F)cc(F)cc4F)n([C@H]4CCOC4)c3n2)CC1
[10]
  % of control: 4.6%

## CNCCN1CCC(c2cc(CN(C)C(=O)c3cccc(Oc4ccccc4)c3)ccn2)CC1
[11]
  IC50: > 10 µM
